Results on one sequence are retold here after publication PMC10115881, “Disrupting the α-synuclein-ESCRT interaction with a peptide inhibitor mitigates neurodegeneration in preclinical models of Parkinson’s disease” (Nature Communications, 2023).

One assay concerns LAMP1. The assay can be described thus: LAMP1 fluorescence in rat cortical neurons. It is filed as cell-based. Conditions: A53T a-syn. From the text:
Pregnant rats (E17) of the Sprague-Dawley strain were purchased from Envigo. Embryos were surgically removed from the mothers and cortices dissected in Hanks Balanced salt solution (Gibco). The meninges were removed, and cells were dissociated using a papain dissociation system (Worthington) before being resuspended in Neurobasal medium A supplemented with antibiotic-antimycotic solution (Gibco), L-glutamine substitute (GlutaMAX™; Gibco) and factor B27 (Gibco). […]
After fixation, cells were permeabilized with 0.2% Triton-X-100 for 15 min, washed three times with PBS and then incubated with blocking solution (1% BSA, 22.52 mg/mL glycine, 0.1% Tween-20 in PBS or 0.4% saponin, 1% BSA, and 5% goat or donkey serum in PBS) for 1 h. […] Following another three washes with PBS, nuclei were counterstained with DAPI (ThermoFisher) and then coverslips were mounted on slides using Dako fluorescence mounting medium (Agilent) and sealed using clear nail varnish.
Confocal images of primary cortical neurons, iPSC-derived dopaminergic neurons, and LAMP1 staining within the SN were processed using Imaris software (Oxford instruments). […] Mean pixel intensity per GFP^+ cell (for experiments using GFP-tagged peptides) or RFP^+ cell (for experiments using RFP-tagged peptides) was calculated for a-syn or LAMP1 signal using the software’s surfaces module. […]

A further assay concerns A53T a-syn or EV rats. The assay can be described thus: AAV-A53T a-syn rat model, low titer. It is filed as in vivo. From the text: Third, we used a preclinical rat model of PD in which SN degeneration is induced by AAV vector-mediated expression of human mutant A53T a-syn[18],[45]–[48] (Fig. 5A). […] (Fig. 5B, C). […] Furthermore, overexpression of A53T a-syn was associated with a reduction in LAMP1 positive puncta in the SN which was restored with PDpep1.3 (Figs. 5E, S5E). […] Forelimb asymmetry in the cylinder test is a behavioral impairment associated with SN degeneration which models bradykinesia, the cardinal motor abnormality in PD[49].
Adult female Sprague-Dawley rats (250–280 g; Envigo) were pair-housed in cages with wood bedding and had access to food and water ad libitum. The animal colony was maintained in a regular 12 h light/dark cycle. All procedures were approved by the University Health Network Animal Care Committee in accordance with guidelines and regulations set by the Canadian Council on Animal Care (AUP #3818).
Animals were secured in a stereotactic frame under isoflurane/oxygen anesthesia and ketoprofen (5 mg/kg) analgesia. The surgical site was shaved and sterilized with iodine/betadine prior to making a 2 cm incision along the midline. The scalp was exposed and a unilateral injection targeting the SN was performed at coordinates AP −5.2 mm, ML −2 mm and DV −7.5 mm with respect to the bregma as a point of reference. […]
Immunofluorescence staining for a-syn, pS129 a-syn, TH, and LAMP1 was performed by washing free-floating sections with PBS-T (0.1% Tween-20 or 0.2% Triton-X-100) three times for 10 min each at room temperature. […] Sections were then mounted onto glass slides and allowed to dry and then Dako fluorescence mounting medium (Agilent) was applied, followed by coverslips.
Confocal images of immunofluorescent staining of midbrain sections were processed using HALO software (Indica Labs), which is a well validated tool for automatic quantification of neurons in brain tissue sections[70]–[72]. […] Levels of total a-syn were assessed in this ROI by measuring the area and intensity of anti-a-syn staining. […]

For the sequence DEEIERQLKALG [PDpep1.3], the “Effect on LAMP1, neurons” value in the assay with LAMP1 is recorded as “restored LAMP1 levels”. In the assay with A53T a-syn or EV rats, the “Effect on LAMP1 positive puncta in SN” value is “restored” and the “Effect on total a-syn positive area in SN” value was “significant reduction in total a-syn positive area in the SN”. Also, the “a-syn mean fluorescence intensity in TH+ and GFP+ SN cells” value in the assay with A53T a-syn or EV rats (n = 5–7 rats/group) was 0.335 ± 0.025 RFU.
